# Counter-ions that a name gives are not always drawn.
# Assays:
# ErbB-2 = target: T1, ErbB-2 (Homo sapiens, UniProt P04626); assay: ErbB-2 substrate phosphorylation enzyme assay (scintillation proximity); assay type: biochemical; details: ErbB-2, pIC50 classes
# T1 construct: made in house
# Method: Compounds of the present invention were tested for EGFR, ErbB-2, and ErbB-4 protein tyrosine kinase inhibitory activity in substrate phosphorylation assays using enzymes purified from a baculovirus expression system. Reagent production and assay methodology were conducted essentially as described (Brignola, P.S., et al, (2002) J. Biol. Chem. v. 277 in press).
# The method measures the ability of the isolated enzyme to catalyse the transfer of the γ-phosphate from ATP onto tyrosine residues in a biotinylated synthetic peptide (biotin-Ahx-RAHEEIYHFFFAKKK-amide). Reactions were performed in 96-well polystyrene round-bottom plates in a final volume of 45 μL. Reaction mixtures contained 50 mM MOPS (pH 7.5), 2 mM MnCl2, 10 μM ATP, 0.125 μCi [γ-^33P] ATP per reaction, 2 μM peptide substrate, and I mM dithiothreitol. Reactions were initiated by adding 1 pmol (20 nM) per reaction of the indicated enzyme. The reaction was allowed to proceed for 15 minutes, terminated and quantified using a scintillation proximity assay procedure as described in McDonald, O. B., Antonsson, B., Arkinstal, S., Marshall, C. J., and Wood, E. R. (1999) Analytical Biochemistry, 268, 318-329.
# Compounds under analysis were dissolved in Me2SO to 0.5 mM and serially diluted 1 to 3 with Me2SO through eleven columns of a 96 well plate. 1 μL of each concentration was transferred to the corresponding well of the assay plate. This creates a final compound concentration range from 0.00019 to 11.1 μM.
# The data for dose responses were plotted as % Control calculated with the data reduction formula 100*(U1−C2)/(C1−C2) versus concentration of compound and fitted to the curve described by: y=((Vmax*x)/(K+x)) where Vmax is the upper asymptote and K is the IC50. Cellular assays: Methylene Blue Growth Inhibition Assay
# BT474 tumor cell line = assay: Methylene blue growth inhibition assay, BT474; assay type: cell-based; details: Homo sapiens, BT-474, 72 h; BT474, 3 days, IC50 classes
# Method: Human breast (BT474), head and neck (HN5) and gastric tumor (N87) cell lines and human foreskin Fibroblasts (HFF) were cultured in low glucose DMEM (Life Technologies 12320-032) containing 10% fetal bovine serum (FBS) at 37° C. in a humidified 10% CO2, 90% air incubator. The SV40 transformed human mammary epithelial cell line HB4a was transfected with either human H-ras cDNA (HB4a r4.2) or the human c-ErbB2 cDNA (HB4a c5.2). The HB4a clones were cultured in RPMI containing 10% FBS, insulin (5 μg/ml), hydrocortisone (5 μg/ml), supplemented with the selection agent hygromycin B (50μg/ml). Cells were harvested using trypsin/EDTA, counted using a haemocytometer, and plated in […] of the appropriate media, at the following densities, in a 96-well tissue culture plate (Falcon 3075): BT474 10,000 cells/well, HN5 3,000 cells/well, N87 10,000 cells/well, HB4a c5.2 3,000 cells/well, HB4a r4.2 3,000 cells/well, HFF 2500 cells/well. The next day, compounds were diluted in DMEM containing […] gentamicin, at twice the final required concentration, from 10 mM stock solutions in DMSO. […] of these dilutions were added to the […] of media currently on the cell plates. Medium containing 0.6% DMSO was added to control wells. Compounds diluted in DMEM were added to all cell lines, including the HB4a r4.2 and HB4a c5.2 cell lines. The final concentration of DMSO in all wells was 0.3%. Cells were incubated at 37° C., 10% CO2 for 3 days. Medium was removed by aspiration. Cell biomass was estimated by staining cells with 100 μl per well methylene blue (Sigma M9140, 0.5% in 50:50 ethanol:water), and incubation at room temperature for at least 30 minutes. Stain was removed, and the plates rinsed under a gentle stream of water, and air-dried. To release stain from the cells 100 μl of solubilization solution was added (1% N-lauroyl sarcosine, Sodium salt, Sigma L5125, in PBS), and plates were shaken gently for about 30 minutes. Optical density at 620 nm was measured on a microplate reader. Percent inhibition of cell growth was calculated relative to vehicle treated control wells. Concentration of compound that inhibits 50% of cell growth (IC50) was interpolated using nonlinear regression (Levenberg-Marquardt) and the equation, y=Vmax*(1−(x/(K+x)))+Y2, where “K” was equal to the IC50.
# Table I illustrates the inhibitory activity of compounds of the present invention as IC50 values in μM against and the BT474 tumor cell line. Using HFF as a representative, human, normal cell line, values for cytotoxicity are supplied as IC50 values in micromolar.
# T1 sequence (P04626 691-1255 limits assumed): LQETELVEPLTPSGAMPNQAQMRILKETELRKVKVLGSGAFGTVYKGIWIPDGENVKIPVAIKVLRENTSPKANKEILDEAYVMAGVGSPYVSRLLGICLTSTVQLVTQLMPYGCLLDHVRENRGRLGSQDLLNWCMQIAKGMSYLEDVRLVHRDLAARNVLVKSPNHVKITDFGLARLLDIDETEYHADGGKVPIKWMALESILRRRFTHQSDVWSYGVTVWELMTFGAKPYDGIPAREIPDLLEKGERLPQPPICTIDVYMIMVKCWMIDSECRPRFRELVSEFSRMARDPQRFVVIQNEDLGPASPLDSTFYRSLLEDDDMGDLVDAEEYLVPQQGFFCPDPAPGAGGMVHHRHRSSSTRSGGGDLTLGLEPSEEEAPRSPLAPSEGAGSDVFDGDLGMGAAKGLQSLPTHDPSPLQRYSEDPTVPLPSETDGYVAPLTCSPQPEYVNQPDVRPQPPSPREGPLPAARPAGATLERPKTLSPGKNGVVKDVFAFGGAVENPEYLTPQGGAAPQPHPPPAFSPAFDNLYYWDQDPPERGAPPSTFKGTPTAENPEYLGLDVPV
Compound,IC50 (ErbB-2) [nM],IC50 (BT474 tumor cell line) [nM],melting point [°C]
"O=C(NCC#Cc1cc2ncnc(Nc3ccc(OCc4cccc(F)c4)c(Cl)c3)c2s1)c1c(Cl)cccc1Cl [2,6-dichloro-N-{3-[4-({3-chloro-4-[(3-fluorobenzyl)oxy]phenyl}amino)thieno[3,2-d]pyrimidin-6-yl]prop-2-ynyl}benzamide]",31.6 to 100,1500 to 5000,
"Fc1cccc(COc2ccc(Nc3ncnc4cc(C#Cc5ncccn5)sc34)cc2Cl)c1 [Example 77, N-{3-chloro-4-[(3-fluorobenzyl)oxy]phenyl}-6-(pyrimidin-2-ylethynyl)thieno[3,2-d]pyrimidin-4-amine]",,,236 to 240
"Fc1cccc(COc2ccc(Nc3ncnc4cc(C#Cc5ccccn5)sc34)cc2Cl)c1 [Example 78, N-{3-chloro-4-[(3-fluorobenzyl)oxy]phenyl}-6-(pyridin-2-yiethynyl)thieno[3,2-d]pyrimidin-4-amine]",,,242
"Fc1cccc(COc2ccc(Nc3ncnc4sc(C#Cc5ccccn5)cc34)cc2Cl)c1 [Example 99, N-{3-chloro-4-[(3-fluorobenzyl)oxy]phenyl}-6-(pyridin-2-ylethynyl)thieno[2,3-d]pyrimidin-4-amine]",,,180
"Fc1cccc(COc2ccc(Nc3ncnc4sc(C#Cc5nccs5)cc34)cc2Cl)c1 [Example 101, N-{3-chloro-4-[(3-fluorobenzyl)oxy]phenyl}-6-(1,3-thiazol-2-ylethynyl)thieno[2,3-d]pyrimidin-4-amine]",,,204
"CS(=O)(=O)CCNCC#Cc1cc2ncnc(Nc3ccc(OCc4cccc(F)c4)c(Cl)c3)c2s1 [N-{3-Chloro-4-[(3-fluorobenzyl)oxy]phenyl}-6-(3-{[2-(methylsulfonyl)ethyl]amino}prop-1-ynyl)thieno[3,2-d]pyrimidin-4-amine hydrochloride]",< 31.6,< 1500,
"CN1CCN(CC(=O)NCC#Cc2cc3ncnc(Nc4ccc(OCc5cccc(F)c5)c(Cl)c4)c3s2)CC1 [N-{3-[4-({3-Chloro-4-[(3-fluorobenzyl)oxy]phenyl}amino)thieno[3,2-d]pyrimidin-6-yl]prop-2-ynyl}-2-(4-methylpiperazin-1-yl)acetamide]",< 31.6,< 1500,
"CN(C)CCNC(=O)NCC#Cc1cc2c(Nc3ccc(OCc4cccc(F)c4)c(Cl)c3)ncnc2s1 [N-{3-[4-({3-chloro-4-[(3-fluorobenzyl)oxy]phenyl}amino)thieno[2,3-d]pyrimidin-6-yl]prop-2-ynyl)N′-[2-(dimethylamino)ethyl]urea]",< 31.6,< 1500,
"CS(=O)(=O)CCNC(=O)NCC#Cc1cc2c(Nc3ccc(OCc4cccc(F)c4)c(Cl)c3)ncnc2s1 [N-{3-[4-({3-chloro-4-[(3-fluorobenzyl)oxy]phenyl}amino)thieno[2,3-d]pyrimidin-6-yl]prop-2-ynyl}-N′-[2-(methylsulfonyl)ethyl]urea]",< 31.6,< 1500,
"O=C(NCC#Cc1cc2ncnc(Nc3ccc(OCc4cccc(F)c4)c(Cl)c3)c2s1)c1ccc2[nH]ccc2c1 [N-{3-[4-({3-chloro-4-[(3-fluorobenzyl)oxy]phenyl}amino)thieno[3,2-d]pyrimidin-6-yl]prop-2-ynyl}-1H-indole-5-carboxamide]",31.6 to 100,1500 to 5000,
"O=C(Cc1ccc(Cl)c(Cl)c1)NCC#Cc1cc2ncnc(Nc3ccc(OCc4cccc(F)c4)c(Cl)c3)c2s1 [N-{3-[4-({3-chloro-4-[(3-fluorobenzyl)oxy]phenyl}amino)thieno[3,2-d]pyrimidin-6-yl]prop-2-ynyl}-2-(3,4-dichlorophenyl)acetamide]",> 100,> 5000,
"O=C(NCC#Cc1cc2ncnc(Nc3ccc(OCc4cccc(F)c4)c(Cl)c3)c2s1)c1csc(-c2ccncc2)n1 [N-{3-[4-({3-chloro-4-[(3-fluorobenzyl)oxy]phenyl}amino)thieno[3,2-d]pyrimidin-6-yl]prop-2-ynyl}-2-pyridin-4-yl-1,3-thiazole-4-carboxamide]",31.6 to 100,1500 to 5000,
"O=C(CCc1ccc(F)cc1)NCC#Cc1cc2ncnc(Nc3ccc(OCc4cccc(F)c4)c(Cl)c3)c2s1 [N-{3-[4-({3-chloro-4-[(3-fluorobenzyl)oxy]phenyl}amino)thieno[3,2-d]pyrimidin-6-yl]prop-2-ynyl}-3-(4-fluorophenyl)propanamide]",31.6 to 100,1500 to 5000,
"Fc1cccc(COc2ccc(Nc3ncnc4sc(C#Cc5ncccn5)cc34)cc2Cl)c1 [N-{3-chloro-4-[(3-fluorobenzyl)oxy]phenyl)-6-(pyrimidin-2-ylethynyl)thieno[2,3-d]pyrimidin-4-amine]",31.6 to 100,1500 to 5000,225
"CC(C)CN(CC#Cc1cc2ncnc(Nc3ccc(OCc4cccc(F)c4)c(Cl)c3)c2s1)CC(C)C [N-{3-chloro-4-[(3-fluorobenzyl)oxy]phenyl}-6-[3-(diisobutylamino)prop-1-ynyl]thieno[3,2-d]pyrimidin-4-amine]",> 100,> 5000,
